The text below walks through data of patent publication EP4567032A1, “KIF18A INHIBITOR COMPOUND, AND PHARMACEUTICAL COMPOSITION AND PREPARATION METHOD THEREFOR AND USE THEREOF” (Changchun Genescience Pharmaceutical Co., Ltd., priority 2022, dated 2024).

Assay [1] concerns OVCAR-3 cells. Kind of assay: imaging-based nuclear count analysis (NCA) in OVCAR-3 cells. Type of assay: cell-based. Conditions: Homo sapiens, 96 h, cultured 4 days, Hoechst 33342 nuclear count, 0.1% DMSO. The procedure:
Test name: imaging-based nuclear count analysis (NCA) in OVCAR-3 cells
• a) When the cell confluence reached 80%-90%, the cells were treated. • b) The cells were resuspended in a medium and then counted and diluted at a desired density. • c) A cell suspension containing appropriate cells was added to the 384-well plate at 30 µL/well: 600 cells/well.
• a) 30 µL of 8% fixative (final concentration 4%) was added and the plate was incubated at room temperature for 30 min. • b) The plate was centrifuged at 1000RPM for 30s. • c) The plate was washed twice with 60 µl/well PBS. • d) After immobilization, the cells were permeabilized and stained in 60 µL of a wash buffer containing 2 µg/mL Hoechst 33342 DNA dye (1% BSA, 0.2% Triton X-100, 1X PBS). • e) The plate was sealed and incubated at room temperature in the dark for 1 h. • f) It was washed with PBS 3 times. • g) 50µLPBS/well was added and the plate was scanned using HCS. • h) Data acquisition and detection
High-reading control wells: cells + 30 nL DMSO; low-reading control wells: 10 µM AM-5308.
IC50 (nM) was calculated using GraphPad Prism 8 software and the effect-dose curves of the compound were plotted. Table 1 Bioactivity data of the compound of the present application

Assay [2] deals with T1, KIF18A (Homo sapiens, UniProt Q8NI77).
T1 sequence (Q8NI77 1-898): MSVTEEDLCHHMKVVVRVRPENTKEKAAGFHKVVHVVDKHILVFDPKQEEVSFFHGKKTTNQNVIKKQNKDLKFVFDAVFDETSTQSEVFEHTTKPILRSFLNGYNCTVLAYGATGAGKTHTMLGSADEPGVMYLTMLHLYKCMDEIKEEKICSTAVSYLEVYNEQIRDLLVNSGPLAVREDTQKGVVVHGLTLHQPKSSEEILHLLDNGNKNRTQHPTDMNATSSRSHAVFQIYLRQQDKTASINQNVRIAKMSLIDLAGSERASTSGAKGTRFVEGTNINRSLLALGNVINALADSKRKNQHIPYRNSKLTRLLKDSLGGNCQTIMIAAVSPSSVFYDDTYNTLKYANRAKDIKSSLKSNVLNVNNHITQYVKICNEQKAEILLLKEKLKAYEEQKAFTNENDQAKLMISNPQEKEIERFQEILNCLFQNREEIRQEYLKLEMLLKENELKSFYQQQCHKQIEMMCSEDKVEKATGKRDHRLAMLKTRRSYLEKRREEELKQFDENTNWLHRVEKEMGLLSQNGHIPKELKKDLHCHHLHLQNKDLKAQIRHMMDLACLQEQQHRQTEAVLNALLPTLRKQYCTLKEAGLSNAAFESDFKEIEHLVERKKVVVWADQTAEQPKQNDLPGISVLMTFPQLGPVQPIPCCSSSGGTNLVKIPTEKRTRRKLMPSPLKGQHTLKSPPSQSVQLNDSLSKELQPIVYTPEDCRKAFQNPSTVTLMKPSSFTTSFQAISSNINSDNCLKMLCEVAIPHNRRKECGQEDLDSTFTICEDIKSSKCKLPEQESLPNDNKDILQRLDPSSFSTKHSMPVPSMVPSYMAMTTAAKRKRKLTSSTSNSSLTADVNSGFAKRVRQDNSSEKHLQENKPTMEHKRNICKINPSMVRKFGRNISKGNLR
As to the kind of experiment: KIF18A enzyme activity test (ADP Glo). Type of assay: biochemical. Conditions: ADP Glo luminescence, 60 min reaction at room temperature, 1% DMSO. The procedure:
Test name: KIF18A enzyme activity test
• 1) Compound dilution and treatment: The final concentrations of AM-5308: 10000, 3333.3, 1111.1, 370.3, 123.4, 41.1, 13.7, 4.5, 1.5, 0.5 nM, the final testing concentrations of the testing compound: 10000, 3333.3, 1111.1, 370.3, 123.4, 41.1, 13.7, 4.5, 1.5 and 0.5 nM. • 2) To each well of the reaction plate, 100 nL of the diluted compound stock solution was transferred using Echo 655. The final concentration of DMSO was 1%. • 3) The reaction plate was sealed with a sealing membrane and centrifuged at 1000g for 1 min. • 4) A 2× enzyme solution was prepared with 1× reaction buffer. • 5) To each well of the reaction plate, 5 µL of 2×enzyme solution was added. The plate was sealed with a sealing membrane, centrifuged at 1000g for 1 min and left at room temperature for 15 min. • 6) A 2× ATP solution was prepared with 1× reaction buffer. • 7) To the reaction plate, 5 µL of 2×ATP solution was added, the plate was centrifuged at 1000g for 1 min, and the reaction was started. • 8) The system was allowed to react at room temperature for 60 min. • 9) 10 µL of ADP Glo reagent was added. The system was centrifuged at 1000 g for 1 min and incubated at room temperature for 60 min. • 10) 20 µL of kinase detection reagent was added. The system was centrifuged at 1000 g for 1 min, and incubated at room temperature for 60 min. • 11) The system was centrifuged at 1000 g for 1 min. • 12) The luminescence signals were read on Envision 2104.
The inhibition percentage is calculated as follows: %inhibition = 100−(Signalcmpd−SignalAve_PC)/(SignalAve_VC−SignalAve_PC) × 100 [formula] • Signalcmpd: Average value of the test compound on the reaction plate. • SignalAve_PC: Average value of the positive control (AM-5308) on the reaction plate. • SignalAve_VC: Average value of the negative control (DMSO) on the reaction plate.
IC50 was calculated and the dose-effect curve was fit: The IC50 of the compound was obtained by non-linear fitting formula with GraphPad 8.0.
Z factor > 0.5; S/B > 2. Table 2 Enzyme activity data for the compound of the present application
On the technique in general: ADP-Glo turns the ADP formed in a reaction into a luminescent signal.

SMILES strings stand for the structures.

The term IC50 denotes the concentration that inhibits the measured activity by half. A lower IC50 goes with inhibition by little substance. For the compound `O=C(Nc1cccc2c1nc1n2[C@H]2CC[C@@H]1C2)c1ccc(NS(=O)(=O)CCO)cc1N1CCC2(CC1)CC2` [Compound 96a, 4-(2-hydroxyethanesulfonylamino) -2-(6-azaspiro[2.5]octan-6-yl)-N-((1S,4R)-1,2,3,4-tetrahydro-1,4-methylenebenzo[4,5]imidazo [1,2-a]pyridin-6-yl)benzamide], the IC50 was found to be 60.9 nM in assay [1] and 5.35 nM in assay [2]. In the case of `O=C(Nc1cccc2c1nc1n2C2CCC1C2)c1ccc(NS(=O)(=O)CCO)cc1N1CCC2(CC1)CC2` (stereo not drawn) [Compound 96, 4-(2-hydroxyethanesulfonylamino)-2-(6-azaspiro[2.5]octan-6-yl)-N-(1,2,3,4-tetrahydro-1,4-methylenebenzo[4,5]imidazo[1,2-a]pyridin-6-yl)benzamide], the IC50 was 89.7 nM in assay [1] and 8.97 nM in assay [2]. On the same counts, the results for `COc1ccc2c(NC(=O)c3ccc(NS(=O)(=O)CCO)cc3N3CCC4(CC3)CC4)cccc2c1` [Compound 1, 2-{6-azaspiro[2.5]octan-6-yl}-4-(2-hydroxyethanesulfonylamino)-N-(6-methoxynaphthalen-1-yl)benzamide] are 163 nM and 21.2 nM. In the same order, the values of `O=C(Nc1cccc2c1nc1n2CCCCC1)c1ccc(NS(=O)(=O)CCO)cc1N1CCC2(CC1)CC2` [Compound 97, 4-(2-hydroxyethanesulfonylamino)-2-(6-azaspiro[2.5]octan-6-yl)-N-(7,8,9,10-tetrahydro-6H-benzo[4,5]imidazo[1,2-a]azepin-4-yl)benzamide] are 58.8 nM and 9.09 nM. Consider `O=C(Nc1cccc2c1nc1n2CCCC1)c1ccc(NS(=O)(=O)CCO)cc1N1CCC2(CC1)CC2` [Compound 22, 4-(2-hydroxyethanesulfonylamino)-2-(6-azaspiro[2.5]octan-6-yl)-N-(benzo[4,5]imidazo[1,2-a]piperidin-6-yl)benzamide], for which the IC50 in assay [1] worked out at 143 nM; in assay [2], 21.3 nM.

`O=C(Nc1cccc2c1nc1n2CCCCC1)c1ccc(NS(=O)(=O)CCO)cc1C1=CCC2(CC1)CC2` [Compound 108, 4-(2-hydroxyethanesulfonylamino) -2-(spiro[2.5]oct-5-en-6-yl)-N-(7,8,9,10-tetrahydro-6H-benzo[4,5]imidazo[1,2-a]azepin-4-yl)benzamide] yielded an IC50 in assay [1] of 183 nM. Same read-out and setting: then `O=C(Nc1ccnc2cc(C3CC3)ccc12)c1ccc(NS(=O)(=O)CCO)cc1N1CCC2(CC1)CC2` [Compound 112, 2-{6-azaspiro[2.5]octan-6-yl}-N-(7-cyclopropylquinolin-4-yl)-4-(2-hydroxyethylsulfonylamino)benzamide], with 117 nM; and `O=C(Nc1cccc2c1oc1ccccc12)c1ccc(NS(=O)(=O)CCO)cc1N1CCC2(CC1)CC2` [Compound 111, N-(dibenzo[b,d]furan-4-yl)-4-(2-hydroxyethanesulfonylamino)-2-(6-azaspiro[2.5]octan-6-yl)benzamide], with 161 nM. Regarding `O=C(Nc1cccc2c1nc1n2CCC1)c1ccc(NS(=O)(=O)CCO)cc1N1CCC2(CC1)CC2` [Compound 36, N-(2,3-dihydro-1H-benzo[d]pyrrolo[1,2-a]imidazol-5-yl)-4-(2-hydroxyethanesulfonylamino)-2-(6-azaspiro[2.5]octan-6-yl)benzamide], the IC50 in assay [1] came out at 72.2 nM; in assay [2], 13.7 nM. On the same counts, the results for `O=C(Nc1cccc2c1nc1n2CCC1(F)F)c1ccc(NS(=O)(=O)CCO)cc1N1CCC2(CC1)CC2` [Compound 94, N-(3,3-difluoro-2,3-dihydro-1H-benzo[d]pyrrolo[1,2-a]imidazol-5-yl)-4-(2-hydroxyethanesulfonylamino)-2-(6-azaspiro[2.5]octan-6-yl)benzamide] are 36.1 nM and 15.1 nM. As to `O=C(Nc1cccc2cc(C(F)(F)F)ccc12)c1ccc(NS(=O)(=O)CCO)cc1N1CCC2(CC1)CC2` [Compound 7, 2-{6-azaspiro[2.5]octan-6-yl}-4-(2-hydroxyethanesulfonylamino) -N-(6-(trifluoromethyl)naphthalen-1-yl)benzamide], the IC50 in assay [1] was determined as 458 nM.

In the case of `CC1CCCn2c1nc1c(NC(=O)c3ccc(NS(=O)(=O)CCO)cc3N3CCC4(CC3)CC4)cccc12` (stereo not drawn) [Compound 98, 4-(2-hydroxyethanesulfonylamino)-N-(4-methyl-1,2,3,4-tetrahydrobenzo[4,5]imidazo[1,2-a]pyridin-6-yl)-2-(6-azaspiro[2.5]octan-6-yl)benzamide], the results for the IC50 in assay [1] and in assay [2] were 170 nM and 26.5 nM, respectively. Regarding `O=C(Nc1cccc2c1CCC1(CC1)C2)c1ccc(NS(=O)(=O)CCO)cc1N1CCC2(CC1)CC2` [Compound 56, 2-{6-azaspiro[2.5]octan-6-yl}-N-{3',4'-dihydro-1'H-spiro[cyclopropane-1,2'-naphthalen]-5'-yl}-4-(2-hydroxyethanesulfonylamino)benzamide], in assay [1], the IC50 was 73.1 nM. This counts as double-digit nanomolar.
